Results as given in patent US20130310374A1, “Substituted Imidazoquinoline Derivatives” (PIRAMAL ENTERPRISES LIMITED`, priority 2010, published 2013).

Assays:
PC3 = experiment: Cytotoxicity propidium iodide assay, PC3; format: cell-based, human; details: Homo sapiens, PC-3; PC3 (prostate), 48 hours treatment; read-out: IC50 Values in μM, C2a
In short: (§1)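 Cells were seeded at 3000/well and allowed 18-24 h at 37 °C/5% CO2, then exposed to a compound dilution series for 48 h. After a PBS wash, propidium iodide was added and plates were frozen overnight, thawed and read by fluorescence. Viability was normalised to untreated wells (100%), and IC50 came from the plotted percentages.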

IFN-γ = experiment: Con-A-induced IFN-γ production from hPBMC; format: cell-based; details: Homo sapiens, concanavalin A 1 μg/mL, 18 hours
Description: Con-A-Induced IFN-γ Production from hPBMC
(§2) Peripheral blood was collected from normal healthy volunteers after informed consent. Peripheral blood mononuclear cells (hPBMC) were harvested using Ficoll-Hypaque density gradient centrifugation (1.077 g/mL; Sigma Aldrich). hPBMCs were resuspended in RPMI 1640 culture medium (Gibco BRL, Pasley, UK) containing 10% FCS, 100 U/mL penicillin (Sigma Chemical Co. St Louis, Mo.) and […] streptomycin (Sigma Chemical Co. St Louis, Mo.) at 1×10^6 cells/mL. 1×10^5 hPBMCs/well were pre-treated with 0.025 μM of compounds of present invention or 0.5% DMSO (vehicle control) for 30 minutes at 37° C. Subsequently, these cells were stimulated with 1 μg/mL concanavalin A (Sigma Chemical Co., St. Louis, Mo.). Following 18 hours of incubation at 37° C., supernatants were collected and stored at −70° C. until assayed for human IFN-γ by ELISA as described by the manufacturer (OptiEIA ELISA sets, BD BioSciences). In every experiment, cyclosporin (1 μM) was used as a positive control for inhibiting induced IFN-γ production. In all experiments, the toxicity of test compounds was ascertained, in parallel, using the MTS (3-(4,5-dimethylthiazol-2-yl)-5-(3-carboxymethoxyphenyl)-2-(4-sulfonyl)-2H-tetrazolium) assay as described in Am. J. Physiol. Cell Physiol., 2003, 285, C813-C822.

BT 549 = experiment: Cytotoxicity propidium iodide assay, BT 549; format: cell-based; details: Homo sapiens; BT 549 (breast), 48 hours treatment; read-out: IC50 Values in μM, C3c
In short: as §1

hPBMC = experiment: MTS toxicity assay in parallel to Con-A-induced IFN-γ assay; format: cell-based, human; details: Con-A experiment
Description: as §2

AsPC 1 = experiment: Cytotoxicity propidium iodide assay, AsPC 1; format: cell-based; details: Homo sapiens, ASPC1; AsPC 1 (pancreatic), 48 hours treatment; read-out: IC50 Values in μM, C4b
IL-6 = experiment: Anti-CD3 mAb and anti-CD28 mAb-induced cytokine production assay, IL-6; format: cell-based; details: Homo sapiens, hPBMC, anti-CD3/anti-CD28, 18 hours
Description: Anti-CD3 mAb and Anti-CD28 mAb-Induced Cytokine Production Assay
Preparation of anti-CD3/anti-CD28 coated plates: 96 well plates were coated with goat anti-mouse IgG, Fc (Millipore) at a concentration of 16.5 μg/mL in coating buffer ([…] NaHCO3, 3.56 g Na2CO3, pH 9.5). Following overnight incubation at 4° C., the plates were washed and then incubated with anti-CD3 (3.5 μg/mL; R&D Systems) and anti-CD28 (35 ng/mL; R&D Systems) cocktail for 3 hours. Subsequently, the plates were washed, and used for hPBMC stimulation.
hPBMC stimulation: Peripheral blood was collected from normal healthy volunteers after informed consent. Peripheral blood mononuclear cells (hPBMC) were harvested using Ficoll-Hypaque density gradient centrifugation (1.077 g/mL; Sigma Aldrich). hPBMCs were resuspended in RPMI 1640 culture medium (Gibco BRL, Pasley, UK) containing 10% FCS, 100 U/mL penicillin (Sigma Chemical Co. St Louis, Mo.) and […] streptomycin (Sigma Chemical Co. St Louis, Mo.) at 1.25×10^6 cells/mL of assay medium. 2.5×10^5 hPBMCs were added per well of 96-well plate coated with or without anti-CD3/anti-CD28 mAbs. Simultaneously, 0.025 μM of compounds of the present invention or 0.5% DMSO (vehicle control) were added to appropriate wells. The cells were then incubated for 18 hours at 37° C., 5% CO2 following which supernatants were collected, stored at […] and assayed later for TNF-α, IL-6 and IFN-γ by ELISA (OptiEIA ELISA sets; BD Biosciences). In every experiment, each condition was run in triplicate wells. In all experiments, the toxicity of test compounds was ascertained, in parallel, using the MTS (3-(4,5-dimethylthiazol-2-yl)-5-(3-carboxymethoxyphenyl)-2-(4-sulfonyl)-2H-tetrazolium) assay as described in Am. J. Physiol. Cell Physiol., 2003, 285, C813-C822.

KCL22/SR = experiment: Cytotoxicity propidium iodide assay, KCL22/SR; format: cell-based; details: Homo sapiens, KCL-22; KCL22/SR (CML), 48 hours treatment; read-out: IC50 Values in μM, C6e
In short: as §1

T315I = experiment: Cytotoxicity propidium iodide assay, T315I; format: cell-based; details: T315I (CML), 48 hours treatment; read-out: IC50 Values in μM, C6b
Description: The assay was designed as in the reference, Anticancer Drugs, 2002, 13, 1-8, the disclosure of which is incorporated herein by reference for the teaching of the assay.
Cells from cell lines (ATCC) as mentioned in the table given below were seeded at a density of 3000 cells/well in a white opaque 96-well plate. Following incubation at 37° C./5% CO2 for a period of 18-24 hours, the cells were treated with various concentrations (stock solution was prepared in DMSO and subsequent dilutions were made in media as per ATCC guidelines) of the compounds of the present invention for a period of 48 hours. At the end of treatment, the culture medium was discarded, the cells were washed with 1×PBS and 200 μL of […] propidium iodide was added to each well. The plates were frozen at […] overnight. For analysis, the plates were warmed to RT, allowed to thaw and were read in PoleStar fluorimeter with the fluorescence setting. The percentage of viable cells in the non-treated set of wells was considered to be 100 and the percentage viability following treatment was calculated accordingly. IC50 values were calculated from graphs plotted using these percentages. IC50 values for certain compounds of present invention are depicted in Table 1 and % Inhibition of certain compounds of present invention are depicted in Table 2.

Row | SMILES | IC50 (PC3) [µM] | inhibition at 0.025 µM (IFN-γ) [%] | IC50 (BT 549) [µM] | % Toxicity at 0.025 μM (hPBMC) [%] | IC50 (AsPC 1) [µM] | inhibition at 0.025 µM (IL-6) [%] | IC50 (KCL22/SR) [µM] | IC50 (T315I) [µM]
1 | Cn1c(=O)n(-c2ccc(C(C)(C)C#N)nc2)c2c3cc(-c4cnc5ccccc5c4)ccc3ncc21 [Example 2, 2-Methyl-2-(5-(3-methyl-2-oxo-8-(quinolin-3-yl)-2,3-dihydro-1H-imidazo[4,5-c]quinolin-1-yl)pyridin-2-yl)propanenitrile] | 0.068 | 58 | 0.9 | 12 | 0.09 | 43 | – | –
2 | Cn1c(=O)n(-c2ccc(C(C)(C)C#N)nc2)c2c3cc(-c4cnc(N)c(C(F)(F)F)c4)ccc3ncc21 [Example 3, 2-(5-(8-(6-Amino-5-(trifluoromethyl)pyridin-3-yl)-3-methyl-2-oxo-2,3-dihydro-1H-imidazo[4,5-c]quinolin-1-yl)pyridin-2-yl)-2-methylpropanenitrile] | 0.005 | 98 | 0.03 | 21 | 0.019 | 84 | 0.06 | 0.32
3 | CC(C)(C#N)c1ccc(-n2c(=O)n(CC#N)c3cnc4ccc(-c5cnc(N)c(C(F)(F)F)c5)cc4c32)cn1 [Example 16, 2-(5-(8-(6-Amino-5-(trifluoromethyl)pyridin-3-yl)-3-(cyanomethyl)-2-oxo-2,3-dihydro-1H-imidazo[4,5-c]quinolin-1-yl)pyridin-2-yl)-2-methylpropanenitrile] | 0.025 | 31 | 0.015 | 3 | 0.038 | 75 | 0.23 | 2.13
4 | COc1ccc(-n2c(=O)n(C)c3cnc4ccc(-c5cnc(N)c(C(F)(F)F)c5)cc4c32)cn1 [Example 19, 8-(6-Amino-5-(trifluoromethyl)pyridin-3-yl)-1-(6-methoxypyridin-3-yl)-3-methyl-1H-imidazo[4,5-c]quinolin-2(3H)-one] | 0.006 | 93 | 0.23 | 18 | 0.1 | 86 | 0.06 | 0.049
